Row | SMILES | melting point
1 | CCOc1ccc2[nH]cc(C(=O)NCC3CCCO3)c(=O)c2n1 (stereo not shown) [Compound 4, N-(2-Tetrahydrofuranyl)methyl 6-ethoxy-4-oxo-1,4-tetrahydro-1,5-naphthyridine-3-carboxamide] | 235 to 237 °C
2 | CCSCCNC(=O)c1c[nH]c2ccc(OC)nc2c1=O [Compound 5, N-[2-(ethylthio)ethyl] 6-methoxy-4-oxo-1,4-dihydro-1,5-napththyridine-3-carboxamide] | 257 to 259 °C (dec.)
3 | O=C(NCc1ccccc1F)c1c[nH]c2ccc(N3CCOCC3)nc2c1=O [Compound 7, N-(2-Fluorobenzyl) 6-morpholino-4-oxo-1,4-tetrahydro-1,5-naphthyridine-3-carboxamide] | 137 to 139 °C
4 | CCOc1ccc2[nH]cc(C(=O)NCc3ccc4c(c3)OCO4)c(=O)c2n1 [Compound 9, N-Piperonyl 6-ethoxy-4-oxo-1,4-tetrahydro-1,5-naphthyridine-3-carboxamide] | 190 °C

— US6646124B2, “Substituted 4-oxo-napthyridine-3-carboxamides: GABA brain receptor ligands” (Neurogen Corporation, priority 1997, dated 2003)
